According to patent US20060009478A1, “Methods for the treatment of back pain” (priority 2003, published 2006):

Assays:
[1] = tested on: patients with moderate to severe chronic low back pain; test: Quality of analgesia, low back pain study; format: in vivo, human; settings: LOCF, ITT
Experimental: Quality of analgesia was assessed at clinic visits during the titration and fixed-dose periods. The patient was prompted with the question, “How would you rate the quality of your pain relief at this time?” and responses were selected from poor, fair, good, very good, and excellent.
Global assessment and quality of analgesia ratings were summarized descriptively by treatment group for both the titration and fixed-dose periods. Treatments were compared at each visit in the fixed-dose period, globally and in pairwise fashion, using the Cochran-Mantel-Haenszel row mean scores (CMH-RMS) test, using equally spaced scores.

[2] = tested on: patients with moderate to severe chronic pain due to osteoarthritis of the hip or knee; test: Vital signs, clinical laboratory tests, EKG (QTc interval), 3-week osteoarthritis study; format: in vivo, human; settings: 3-week treatment
Excerpt: The opioid toxicity assessment included: (A) CNS review by assessing for (1) confusion, altered mental state, (2) excessive drowsiness, lethargy, stupor, (3) slurred speech (new onset), (4) respiratory, (5) hypoventilation, shortness of breath, apnea, (6) hypoxia, hypercarbia; and (b) cardiac review by assessing for bradycardia, hypotension, and shock. If patients experienced any of these or other symptoms that, in the principal investigator's opinion, would pose a significant risk if additional opioid doses were administered, doses were not escalated on Week 2, Day 1 or Week 3, Day 1.

With `COc1ccc2c3c1O[C@H]1C(=O)CC[C@@]4(O)[C@@H](C2)N(C)CC[C@]314` [OXY QID, oxycodone] the “Quality of analgesia EXCELLENT (4), number of patients” value (from here on “Quality … (4), number of patients”) ([1]; fixed dose period week 1) was 25, the “Quality of analgesia EXCELLENT (4), percent of patients” value (“Quality … (4), percent of patients” below) ([1]; fixed dose period week 1) was 12.1% and the “Quality of analgesia FAIR (1), number of patients” value (“Quality … (1), number of patients” below) ([1]; fixed dose period week 1) was 26. For the same compound, the “Quality of analgesia FAIR (1), percent of patients” value (“Quality … (1), percent of patients” for short) ([1]; fixed dose period week 1) was 12.6%, the “Quality of analgesia GOOD (2), number of patients” value (shortened to “Quality … (2), number of patients”) ([1]; fixed dose period week 1) was 69 and the “Quality of analgesia GOOD (2), percent of patients” value (shortened to “Quality … (2), percent of patients”) ([1]; fixed dose period week 1) was 33.5%. For the same compound, the “Quality of analgesia POOR (0), number of patients” value (“Quality … (0), number of patients” below) ([1]; fixed dose period week 1) was 33, the “Quality of analgesia POOR (0), percent of patients” value (“Quality … (0), percent of patients” for short) ([1]; fixed dose period week 1) was 16.0% and the “Quality of analgesia VERY GOOD (3), number of patients” value (shortened to “Quality … (3), number of patients”) ([1]; fixed dose period week 1) was 52. The “Quality of analgesia VERY GOOD (3), percent of patients” value (“Quality … (3), percent of patients” for short) ([1]; fixed dose period week 1) was 25.2%, the “Quality … (4), number of patients” value ([1]; fixed dose period week 2) was 24 and the “Quality … (4), percent of patients” value ([1]; fixed dose period week 2) was 11.7%. The “Quality … (1), number of patients” value ([1]; fixed dose period week 2) was 27, the “Quality … (1), percent of patients” value ([1]; fixed dose period week 2) was 13.1% and the “Quality … (2), number of patients” value ([1]; fixed dose period week 2) was 70. For the same compound, the “Quality … (2), percent of patients” value ([1]; fixed dose period week 2) was 34.0%, the “Quality … (0), number of patients” value ([1]; fixed dose period week 2) was 32 and the “Quality … (0), percent of patients” value ([1]; fixed dose period week 2) was 15.5%. The “Quality … (3), number of patients” value ([1]; fixed dose period week 2) was 52, the “Quality … (3), percent of patients” value ([1]; fixed dose period week 2) was 25.2% and the “Quality … (4), number of patients” value ([1]; fixed dose period week 4) was 20. For the same compound, the “Quality … (4), percent of patients” value ([1]; fixed dose period week 4) was 9.7%, the “Quality … (1), number of patients” value ([1]; fixed dose period week 4) was 28 and the “Quality … (1), percent of patients” value ([1]; fixed dose period week 4) was 13.6%. The “Quality … (2), number of patients” value ([1]; fixed dose period week 4) was 63, the “Quality … (2), percent of patients” value ([1]; fixed dose period week 4) was 30.6% and the “Quality … (0), number of patients” value ([1]; fixed dose period week 4) was 35. For the same compound, the “Quality … (0), percent of patients” value ([1]; fixed dose period week 4) was 17.0%, the “Quality … (3), number of patients” value ([1]; fixed dose period week 4) was 59 and the “Quality … (3), percent of patients” value ([1]; fixed dose period week 4) was 28.6%. The “Quality … (4), number of patients” value ([1]; fixed dose period week 6) was 24, the “Quality … (4), percent of patients” value ([1]; fixed dose period week 6) was 11.7% and the “Quality … (1), number of patients” value ([1]; fixed dose period week 6) was 34. The “Quality … (1), percent of patients” value ([1]; fixed dose period week 6) was 16.5%, the “Quality … (2), number of patients” value ([1]; fixed dose period week 6) was 67 and the “Quality … (2), percent of patients” value ([1]; fixed dose period week 6) was 32.5%. For the same compound, the “Quality … (0), number of patients” value ([1]; fixed dose period week 6) was 36, the “Quality … (0), percent of patients” value ([1]; fixed dose period week 6) was 17.5% and the “Quality … (3), number of patients” value ([1]; fixed dose period week 6) was 44. The “Quality … (3), percent of patients” value ([1]; fixed dose period week 6) was 21.4%, the “Quality … (4), number of patients” value ([1]; fixed dose period week 8) was 24 and the “Quality … (4), percent of patients” value ([1]; fixed dose period week 8) was 11.7%. The “Quality … (1), number of patients” value ([1]; fixed dose period week 8) was 35, the “Quality … (1), percent of patients” value ([1]; fixed dose period week 8) was 17.0% and the “Quality … (2), number of patients” value ([1]; fixed dose period week 8) was 72. The “Quality … (2), percent of patients” value ([1]; fixed dose period week 8) was 35.0%, the “Quality … (0), number of patients” value ([1]; fixed dose period week 8) was 33 and the “Quality … (0), percent of patients” value ([1]; fixed dose period week 8) was 16.0%. The “Quality … (3), number of patients” value ([1]; fixed dose period week 8) was 41, the “Quality … (3), percent of patients” value ([1]; fixed dose period week 8) was 19.9% and the “Quality … (4), number of patients” value ([1]; fixed dose period week 10) was 24. For the same compound, the “Quality … (4), percent of patients” value ([1]; fixed dose period week 10) was 11.7%, the “Quality … (1), number of patients” value ([1]; fixed dose period week 10) was 35 and the “Quality … (1), percent of patients” value ([1]; fixed dose period week 10) was 17.0%. The “Quality … (2), number of patients” value ([1]; fixed dose period week 10) was 66, the “Quality … (2), percent of patients” value ([1]; fixed dose period week 10) was 32.0% and the “Quality … (0), number of patients” value ([1]; fixed dose period week 10) was 35. For the same compound, the “Quality … (0), percent of patients” value ([1]; fixed dose period week 10) was 17.0%, the “Quality … (3), number of patients” value ([1]; fixed dose period week 10) was 45 and the “Quality … (3), percent of patients” value ([1]; fixed dose period week 10) was 21.8%. For the same compound, the “Quality … (4), number of patients” value ([1]; fixed dose period week 12) was 21, the “Quality … (4), percent of patients” value ([1]; fixed dose period week 12) was 10.2% and the “Quality … (1), number of patients” value ([1]; fixed dose period week 12) was 40. The “Quality … (1), percent of patients” value ([1]; fixed dose period week 12) was 19.4%, the “Quality … (2), number of patients” value ([1]; fixed dose period week 12) was 64 and the “Quality … (2), percent of patients” value ([1]; fixed dose period week 12) was 31.1%. The “Quality … (0), number of patients” value ([1]; fixed dose period week 12) was 37, the “Quality … (0), percent of patients” value ([1]; fixed dose period week 12) was 18.0% and the “Quality … (3), number of patients” value ([1]; fixed dose period week 12) was 43. The “Quality … (3), percent of patients” value ([1]; fixed dose period week 12) was 20.9% and the “Effects on vital signs, laboratory safety tests or QTc interval changes” value [2] was “no clinically meaningful effects”.
